# Reference: ChEMBL document CHEMBL1201862, “PubChem BioAssay data set” (2004)
#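 Assay format: 96-well plates, 48-hour exposure. GI50 = concentration required for 50% inhibition of growth.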 Activity calls are given as the source filed them. Cut-off read from the data, not from the text of the source: active = GI50 up to about 1.1 µM and inactive = higher.
# Tests used:
# Assay in all cases: growth of human tumour cells (NCI), 48 h
# [1] = system: SNB-78
# [2] = system: M19-MEL
# [3] = system: DMS-114
# [4] = system: LXFL 529
# [5] = system: DLD-1
# [6] = system: KM-20L2
# [7] = system: XF498
# [8] = system: HOP-18
# [9] = system: RXF 631
SMILES,GI50 [1],GI50 [2],GI50 [3],GI50 [4],GI50 [5],GI50 [6],GI50 [7],GI50 [8],GI50 [9]
COc1cccc(/C=C(\NC(C)=O)c2nc3cc(Cl)ccc3[nH]2)c1,> 100 µM (inactive),> 100 µM (inactive),> 100 µM (inactive),> 100 µM (inactive),> 100 µM (inactive),> 100 µM (inactive),> 100 µM (inactive),–,–
Cc1ccc(-c2cc(-c3ccco3)c(C#N)c(=O)n2C2OC(OC(=O)c3ccccc3)C(OC(=O)c3ccccc3)C2OC(=O)c2ccccc2)cc1 (centres undefined),83.6 µM (inactive),> 100 µM (inactive),38.6 µM (inactive),> 100 µM (inactive),> 100 µM (inactive),> 100 µM (inactive),–,> 100 µM (inactive),> 100 µM (inactive)
COc1ccc([Se]c2ccc(OC)cc2OC)c(OC)c1,22.6 µM (inactive),9.46 µM (inactive),3.44 µM (inactive),30.1 µM (inactive),17.4 µM (inactive),8.38 µM (inactive),24.9 µM (inactive),20.2 µM (inactive),22.1 µM (inactive)
O=C(Nc1cccc(Cc2cccc(NC(=O)c3ccccc3)c2)c1)c1ccccc1,–,63 µM (inactive),10.6 µM (inactive),28.7 µM (inactive),91.8 µM (inactive),> 100 µM (inactive),–,34.3 µM (inactive),–
Cc1c(Cl)ccc2c1NC(=O)C2(O)CC(=O)c1cccc2ccccc12 (centres undefined),> 100 µM (inactive),18.3 µM (inactive),18.3 µM (inactive),> 100 µM (inactive),> 100 µM (inactive),51.8 µM (inactive),> 100 µM (inactive),77.3 µM (inactive),–
O=C1CCC[C@]2(CCCC(=O)N2)C1,> 94 µM (inactive),> 100 µM (inactive),> 100 µM (inactive),> 100 µM (inactive),> 100 µM (inactive),> 100 µM (inactive),> 100 µM (inactive),> 100 µM (inactive),> 100 µM (inactive)
O=C(OCN1C(=O)C2C3C=CC(C2C1=O)C1C2C(=O)N(COC(=O)C4CCCN4)C(=O)C2C31)C1CCCN1 (centres undefined),> 100 µM (inactive),> 77.8 µM (inactive),25.9 µM (inactive),78.7 µM (inactive),34.2 µM (inactive),64.1 µM (inactive),> 75.9 µM (inactive),> 100 µM (inactive),> 64.7 µM (inactive)
CC(=O)O[C@]12CCCCC1C1(O)C(O)CCCCC12 (some centres undefined),> 100 µM (inactive),> 100 µM (inactive),> 100 µM (inactive),> 100 µM (inactive),–,> 100 µM (inactive),–,> 100 µM (inactive),–
O=c1c2cccnc2ncn1CCCN1CCCC1,> 100 µM (inactive),> 100 µM (inactive),86.1 µM (inactive),–,> 100 µM (inactive),–,> 100 µM (inactive),–,–
CCc1cccc(C)c1NC(=O)CC(=O)NNC(N)=S,> 100 µM (inactive),–,> 100 µM (inactive),> 100 µM (inactive),> 100 µM (inactive),> 100 µM (inactive),> 100 µM (inactive),> 100 µM (inactive),–
CC(=O)O[C@]12CCCCCC1C1(O)C(O)CCC[C@H]12 (some centres undefined),> 100 µM (inactive),> 100 µM (inactive),> 100 µM (inactive),> 100 µM (inactive),–,> 100 µM (inactive),> 100 µM (inactive),> 100 µM (inactive),–
O=C(O)CNc1cc(-c2ccccc2)nc(NCC(=O)O)n1,> 100 µM (inactive),> 100 µM (inactive),> 100 µM (inactive),> 100 µM (inactive),> 100 µM (inactive),> 100 µM (inactive),> 100 µM (inactive),> 100 µM (inactive),> 100 µM (inactive)
O=C1NC(=O)C(C(=O)C(=O)Nc2ccc(Cl)cc2Cl)C(=O)N1,> 100 µM (inactive),> 100 µM (inactive),> 100 µM (inactive),> 100 µM (inactive),> 100 µM (inactive),> 100 µM (inactive),–,–,> 100 µM (inactive)
COc1c(C)c2c(c(O)c1C/C=C(\C)CCC(=O)O)C(=O)OC2 [MYCOPHENOLIC ACID],–,1.28 µM (inactive),0.845 µM (active),0.693 µM (active),0.57 µM (active),–,–,16.1 µM (inactive),–
CCC1(N=[N+]=[N-])C(=O)c2ccccc2N(C)C1=O (centres undefined),> 100 µM (inactive),> 100 µM (inactive),> 100 µM (inactive),> 100 µM (inactive),> 100 µM (inactive),> 100 µM (inactive),–,82.2 µM (inactive),–
O=C1CCC(c2ccccc2)C(O)(C(=O)O)C1 (centres undefined),> 100 µM (inactive),> 100 µM (inactive),–,> 100 µM (inactive),> 100 µM (inactive),> 100 µM (inactive),–,> 100 µM (inactive),> 100 µM (inactive)
CNCC(=O)Nc1ccc2c(c1)C(=O)c1ccc(NC(=O)CNC)cc1C2=O,3.05 µM (inactive),–,2.03 µM (inactive),2.8 µM (inactive),9.64 µM (inactive),5.3 µM (inactive),3.32 µM (inactive),< 0.01 µM (active),–
CC1(Br)C(=O)NC(=O)N(C2CC(N=[N+]=[N-])C(CO)O2)C1N=[N+]=[N-] (centres undefined),> 100 µM (inactive),> 100 µM (inactive),> 100 µM (inactive),> 100 µM (inactive),> 100 µM (inactive),> 100 µM (inactive),> 100 µM (inactive),–,> 100 µM (inactive)
COc1ccc(/C=c2/sc3n(c2=O)NC2(CCC(C)CC2)NN=3)cc1 (centres undefined),> 100 µM (inactive),> 100 µM (inactive),50 µM (inactive),> 100 µM (inactive),> 100 µM (inactive),> 100 µM (inactive),> 100 µM (inactive),–,–
CC1(C)C=N[N+]2(C)C3C=CC(CC3)C12 (centres undefined),> 100 µM (inactive),> 100 µM (inactive),> 100 µM (inactive),> 100 µM (inactive),> 100 µM (inactive),> 100 µM (inactive),–,> 100 µM (inactive),> 100 µM (inactive)
C=CC1=C(C)c2cc3[nH]c(cc4nc(cc5[nH]c(cc1n2)c(C)c5CCC(=O)N(CC)CC)C(CCC(=O)N(CC)CC)=C4C)c(C)c3C=C,> 100 µM (inactive),> 100 µM (inactive),–,> 100 µM (inactive),> 100 µM (inactive),> 100 µM (inactive),–,< 0.01 µM (active),–
COC1=CC(=O)C(O)=C(CC2(C)C(C)CCC3(C)C2CCCC3(C)C)C1=O (centres undefined),18.1 µM (inactive),2.16 µM (inactive),2.57 µM (inactive),5.41 µM (inactive),5.53 µM (inactive),2.42 µM (inactive),4.14 µM (inactive),2.65 µM (inactive),25.7 µM (inactive)
Cc1cc(C)cc(NC(=O)CCC(=O)C2CCC/C2=N\NC(=O)C(=O)NN)c1 (centres undefined),–,> 100 µM (inactive),> 100 µM (inactive),> 100 µM (inactive),> 100 µM (inactive),> 100 µM (inactive),> 100 µM (inactive),> 100 µM (inactive),> 100 µM (inactive)
